This is an account of results in patent publication US10065963B2 (Incyte Corporation, priority 2015, dated 2018).

Structures can show the parent of a compound that is named as a salt. Where two headings read alike, the source gives them in different places.

For experiment [1], the target named is human JAK1 (a.a. 837-1142) (Homo sapiens, UniProt P23458). Description: In vitro JAK kinase assay (JAK1). It is filed as biochemical. Particulars: 1 mM ATP.
Experiment [2] concerns the target human JAK2 (a.a. 828-1132) (Homo sapiens (Human), UniProt O60674). The experiment can be described thus: In vitro JAK kinase assay (JAK2). It is filed as biochemical. To be noted: IC50 ratio, 1 mM ATP.
Experiment [3] concerns the target PI3Kγ (p110γ) Recombinant Human Protein (Homo sapiens (Human), UniProt P48736). The experiment can be described thus: PI3K-γ scintillation proximity assay. It is filed as biochemical. To be noted: 2 μM ATP, 20 μM PIP2. For orientation: SPA uses beads or plates that emit light when radiolabelled molecules are held near them.
Experiment [4] addresses PI3Kδ (p110δ/p85α) Recombinant Human Protein (Homo sapiens (Human), UniProt O00329). The experiment can be described thus: PI3Kδ scintillation proximity assay. It is filed as biochemical. Particulars: 2 μM ATP, 20 μM PIP2.
Experiment [5] has as its system Phosphorylated Ribosomal Protein S6 (RPS6) in THP-1 cells. The experiment can be described thus: THP-1 RPS6 ELISA assay. It counts as cell-based, human. Particulars: 10 nM MCP-1, read-out: PI3Kγ_THP1_RPS6_ELISA IC50. (In general: An ELISA detects its analyte on a solid surface through an enzyme-linked reagent.)
Setting [6] is: Homo sapiens, THP-1, THP-1 cells.

PI3Kδ (p110δ/p85α) Recombinant Human Protein, sequence (O00329 whole entry): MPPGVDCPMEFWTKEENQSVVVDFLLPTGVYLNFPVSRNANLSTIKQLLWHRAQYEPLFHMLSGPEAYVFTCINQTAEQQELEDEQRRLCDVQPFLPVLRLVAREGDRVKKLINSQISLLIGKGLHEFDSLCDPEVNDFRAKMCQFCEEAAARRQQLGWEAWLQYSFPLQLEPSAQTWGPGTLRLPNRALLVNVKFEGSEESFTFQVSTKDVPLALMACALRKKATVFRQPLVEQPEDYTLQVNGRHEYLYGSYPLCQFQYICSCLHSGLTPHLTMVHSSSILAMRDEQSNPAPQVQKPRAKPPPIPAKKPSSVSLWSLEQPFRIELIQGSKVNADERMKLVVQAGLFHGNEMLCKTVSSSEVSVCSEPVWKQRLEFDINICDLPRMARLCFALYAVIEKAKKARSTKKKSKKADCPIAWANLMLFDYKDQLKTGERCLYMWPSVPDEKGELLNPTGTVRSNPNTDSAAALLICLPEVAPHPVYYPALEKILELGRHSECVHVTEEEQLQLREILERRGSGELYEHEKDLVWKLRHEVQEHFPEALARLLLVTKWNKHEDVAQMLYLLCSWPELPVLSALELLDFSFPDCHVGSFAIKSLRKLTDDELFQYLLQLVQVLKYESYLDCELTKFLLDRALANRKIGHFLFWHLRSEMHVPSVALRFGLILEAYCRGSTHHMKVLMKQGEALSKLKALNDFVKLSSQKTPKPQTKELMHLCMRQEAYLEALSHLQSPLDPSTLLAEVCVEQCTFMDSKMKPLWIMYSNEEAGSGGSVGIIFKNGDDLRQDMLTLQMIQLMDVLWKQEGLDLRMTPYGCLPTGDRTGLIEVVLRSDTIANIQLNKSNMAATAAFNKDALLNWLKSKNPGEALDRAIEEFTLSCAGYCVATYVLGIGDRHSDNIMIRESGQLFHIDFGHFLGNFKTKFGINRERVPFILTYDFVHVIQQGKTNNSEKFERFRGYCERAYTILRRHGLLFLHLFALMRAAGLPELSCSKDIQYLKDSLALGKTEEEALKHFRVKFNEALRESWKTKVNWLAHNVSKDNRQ
PI3Kδ (p110δ/p85α) Recombinant Human Protein, sequence (P27986 whole entry partner): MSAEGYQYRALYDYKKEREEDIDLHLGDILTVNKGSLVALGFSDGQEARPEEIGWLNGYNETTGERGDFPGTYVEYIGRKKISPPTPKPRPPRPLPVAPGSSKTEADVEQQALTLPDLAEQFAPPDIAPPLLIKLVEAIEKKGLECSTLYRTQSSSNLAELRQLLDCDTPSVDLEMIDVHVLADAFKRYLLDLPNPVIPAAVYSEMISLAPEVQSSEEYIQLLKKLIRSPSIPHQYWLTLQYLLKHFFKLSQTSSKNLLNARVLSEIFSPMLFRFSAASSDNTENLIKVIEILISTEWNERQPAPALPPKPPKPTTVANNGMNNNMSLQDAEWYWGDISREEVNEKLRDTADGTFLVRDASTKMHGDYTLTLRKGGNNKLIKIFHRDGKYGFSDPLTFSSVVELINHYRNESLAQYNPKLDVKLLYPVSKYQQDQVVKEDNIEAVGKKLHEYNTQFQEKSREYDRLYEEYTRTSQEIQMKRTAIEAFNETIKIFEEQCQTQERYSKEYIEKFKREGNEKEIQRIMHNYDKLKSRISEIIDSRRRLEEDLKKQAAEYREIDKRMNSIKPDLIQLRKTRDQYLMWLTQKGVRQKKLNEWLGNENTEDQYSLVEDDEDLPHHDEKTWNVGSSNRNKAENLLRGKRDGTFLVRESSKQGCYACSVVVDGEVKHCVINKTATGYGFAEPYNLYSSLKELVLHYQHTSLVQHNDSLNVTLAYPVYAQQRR
PI3Kγ (p110γ) Recombinant Human Protein, sequence (P48736 whole entry): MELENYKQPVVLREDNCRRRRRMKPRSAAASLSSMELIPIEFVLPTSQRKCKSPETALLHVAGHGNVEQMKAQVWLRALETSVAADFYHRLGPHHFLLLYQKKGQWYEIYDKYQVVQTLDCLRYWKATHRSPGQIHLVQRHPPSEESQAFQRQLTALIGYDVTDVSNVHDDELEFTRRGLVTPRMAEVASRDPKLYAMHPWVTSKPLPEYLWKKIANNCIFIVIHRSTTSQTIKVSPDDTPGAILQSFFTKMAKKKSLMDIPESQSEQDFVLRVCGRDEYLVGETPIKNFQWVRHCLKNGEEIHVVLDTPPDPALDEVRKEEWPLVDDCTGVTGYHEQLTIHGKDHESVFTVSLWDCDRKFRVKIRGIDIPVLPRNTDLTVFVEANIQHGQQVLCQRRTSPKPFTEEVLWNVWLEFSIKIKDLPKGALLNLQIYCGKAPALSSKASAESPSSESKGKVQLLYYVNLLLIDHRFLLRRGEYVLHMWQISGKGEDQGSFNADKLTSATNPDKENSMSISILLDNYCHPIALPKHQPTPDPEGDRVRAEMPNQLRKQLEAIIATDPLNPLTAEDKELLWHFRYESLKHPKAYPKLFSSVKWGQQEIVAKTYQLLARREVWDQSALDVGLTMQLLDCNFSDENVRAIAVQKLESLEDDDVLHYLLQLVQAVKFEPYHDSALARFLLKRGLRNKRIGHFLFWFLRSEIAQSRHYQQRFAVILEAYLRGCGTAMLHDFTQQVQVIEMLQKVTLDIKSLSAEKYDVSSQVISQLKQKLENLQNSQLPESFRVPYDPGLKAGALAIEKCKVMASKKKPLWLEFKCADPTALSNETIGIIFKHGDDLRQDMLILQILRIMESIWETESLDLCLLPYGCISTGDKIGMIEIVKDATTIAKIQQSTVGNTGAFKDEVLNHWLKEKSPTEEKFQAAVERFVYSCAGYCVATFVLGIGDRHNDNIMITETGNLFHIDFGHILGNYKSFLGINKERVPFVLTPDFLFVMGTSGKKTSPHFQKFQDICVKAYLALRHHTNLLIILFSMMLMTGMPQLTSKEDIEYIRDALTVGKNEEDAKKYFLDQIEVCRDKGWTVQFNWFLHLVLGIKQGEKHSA
human JAK2 (a.a. 828-1132), sequence (O60674 828-1132): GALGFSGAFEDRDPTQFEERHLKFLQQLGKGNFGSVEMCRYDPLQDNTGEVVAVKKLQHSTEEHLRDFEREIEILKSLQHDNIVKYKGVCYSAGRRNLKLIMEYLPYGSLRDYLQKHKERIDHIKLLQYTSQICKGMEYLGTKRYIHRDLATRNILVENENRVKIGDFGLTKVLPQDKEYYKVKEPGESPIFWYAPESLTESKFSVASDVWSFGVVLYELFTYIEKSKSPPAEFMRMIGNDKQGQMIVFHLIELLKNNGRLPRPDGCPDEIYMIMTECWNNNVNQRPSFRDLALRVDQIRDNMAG

As to `N#CCC(C1CCN(c2cccc(Cl)n2)C1)n1cc(-c2ncnc3[nH]ccc23)cn1` (single isomer, unassigned) [Example 3, 3-[1-(6-chloropyridin-2-yl)pyrrolidin-3-yl]-3-[4-(7H-pyrrolo[2,3-d]pyrimidin-4-yl)-1H-pyrazol-1-yl]propanenitrile], the IC50 (commonly the concentration that inhibits the measured activity by half) in experiment [1] was under 10 nM. For the same molecule, the JAK2/JAK1 in experiment [2] is over 10.

As for `CC(NC(=O)c1c(N)nn2cccnc12)c1cc(Cl)c2cncn2c1N1CCC(O)C1` (centres unmarked) [Example 148, 2-Amino-N-{1-[8-chloro-5-(3-hydroxy-pyrrolidin-1-yl)imidazo[1,5-a]pyridin-6-yl]ethyl}pyrazolo [1,5-a]pyrimidine-3-carboxamide trifluoroacetate salt], the IC50 in experiment [3], in experiment [4] and in experiment [5] (setting [6]) was under 500 nM each time.

In the case of `CC(NC(=O)c1c(N)nn2cccnc12)c1cc(Cl)c2cncn2c1N1C[C@@H](O)C[C@H](O)C1` (stereo partly drawn) [Example 150, 2-Amino-N-(1-{8-chloro-5-[(3S,5S)-3,5-dihydroxypiperidin1-yl]imidazo[1,5-a]pyridin-6-yl}ethyl)pyrazol[1,5-a]pyrimidine-3-carboxamide trifluoroacetate salt], the IC50 in experiment [3] is under 100 nM; in experiment [4], under 100 nM; in experiment [5] (THP-1 cells), under 500 nM.

Regarding `CC(NC(=O)c1c(N)nn2cccnc12)c1cc(Cl)c2cncn2c1N1CCCC(O)C1` (centres unmarked) [Example 152, 2-Amino-N-(1-{8-chloro-5-[(3)-3-hydroxypiperidin-1-yl]imidazo[1,5-a]pyridin-6-yl}ethyl)pyrazolo[1,5-a]pyrimidine-3-carboxamide trifluoroacetate salt], the IC50 was under 100 nM in experiment [3], under 100 nM in experiment [4] and under 500 nM in experiment [5] (THP-1 cells).

Take `CC(NC(=O)c1c(N)nn2cccnc12)c1cc(Cl)c2cncn2c1N1CCC(C#N)CC1` (centres unmarked) [Example 153, 2-Amino-N-{1-[8-chloro-5-(4-cyanopiperidin-1-yl)imidazo[1.5-a]pyridin-6-yl]ethyl}pyrazolo[1,5-a]pyrimidine-3-carboxamide trifluoroacetate salt]: the figures for the IC50 in experiment [3], in experiment [4] and in experiment [5] (THP-1 cells) were under 100 nM, under 100 nM and under 500 nM, respectively.

Take `CC(NC(=O)c1c(N)nn2cccnc12)c1cc(Cl)c2cncn2c1N1C[C@H](O)C[C@H](O)C1` (stereo partly drawn) [Example 155B, 2-Amino-N-(1-{8-chloro-5-[(3R,5S)-3,5-dihydroxypiperidin-1-yl]imidazo[1,5-a]pyridin-6-yl}ethyl)pyrazolo[1,5-a]pyrimidine-3-carboxamide trifluoroacetate salt]: the IC50 in experiment [3] was under 100 nM; in experiment [4] it was under 100 nM; in experiment [5] (setting [6]), under 500 nM.

`CC(NC(=O)c1c(N)nn2cccnc12)c1cc(Cl)c2cncn2c1N1C[C@@H](O)C[C@@H](F)C1` (stereo partly drawn) [Example 156, 2-Ammo-N-(1-{8-chloro-5-[(3R,5S)-3-fluoro-5-hydroxypiperidin-1-yl]imidazo[1,5-a]pyridin-6-yl}ethyl)pyrazolo[1,5-a]pyrimidine-3-carboxamide trifluoroacetate salt]: the IC50 in experiment [3] is under 100 nM; in experiment [4], under 2000 nM; in experiment [5] (THP-1 cells), under 1000 nM.

Take `CC(NC(=O)c1c(N)nn2cccnc12)c1cc(Cl)c2cncn2c1N1C[C@H](O)C[C@H](C#N)C1` (stereo partly drawn) [Example 157, 2-Amino-N-(1-{8-chloro-5-[(3S,5R)-3-cyano-5-hydroxypiperidin-1-yl]imidazo[1,5-a]pyridin-6-yl}ethyl)pyrazolo[1,5-a]pyrimidine-3-carboxamide trifluoroacetate salt]: the IC50 is under 100 nM in experiment [3], under 500 nM in experiment [4] and under 1000 nM in experiment [5] (setting [6]).

In the case of `CC(NC(=O)c1c(N)nn2cccnc12)c1cc(Cl)c2c(C#N)ncn2c1N1CCS(=O)(=O)C(C)C1` (centres unmarked) [Example 165, 2-Amino-N-(1-(8-chloro-1-cyano-5-(2-methyl-1,1-dioxidothiomorpholino)imidazo[1,5-a]pyridin-6-yl)ethyl)pyrazolo[1,5-a]pyrimidine-3-carboxamide trifluoroacetate salt], the results for the IC50 in experiment [3], in experiment [4] and in experiment [5] (setting [6]) were under 100 nM, under 2000 nM and under 500 nM, respectively.

`Nc1nn2cccnc2c1C(=O)NCc1cc(Cl)c2cncn2c1N1CCS(=O)(=O)CC1` [Example 166, 2-Amino-N-{[8-chloro-5-(1,1-dioxidothiomorpholin-4-yl)imidazo[1,5-a]pyridin-6-yl]methyl}pyrazolo[1,5-a]pyrimidine-3-carboxamide trifluoroacetate salt]: the IC50 was under 100 nM in experiment [3], under 2000 nM in experiment [4] and under 1000 nM in experiment [5] (setting [6]).

Consider `CC1(C)CN(c2c(CNC(=O)c3c(N)nn4cccnc34)cc(Cl)c3cncn23)CCS1(=O)=O` [Example 168, 2-Amino-N-((8-chloro-5-(2,2-dimethyl-1,1-dioxido-thiomorpholino)imidazo[1,5-a]pyridin-6-yl)methyl) pyrazolo[1,5-a] pyrimidine-3-carboxamide trifluoroacetate salt], for which the IC50 in experiment [3] is under 100 nM; in experiment [4], under 2000 nM; in experiment [5] (THP-1 cells) it was over 1000 nM.

On to `CC1(C)CN(c2c(CNC(=O)c3c(N)nn4cccnc34)cc(Cl)c3c(Cl)ncn23)CCS1(=O)=O` [Example 170, 2-Amino-N-((1,8-dichloro-5-(2,2-dimethyl-1,1-dioxidothio-morpholino)imidazo [1,5-a]pyridin-6-yl)methyl) pyrazolo[1,5-a] pyrimidine-3-carboxamide trifluoroacetate salt], for which the IC50 in experiment [3] was under 100 nM; in experiment [4] it was under 2000 nM; in experiment [5] (THP-1 cells) it was over 1000 nM.

As for `Nc1nn2cccnc2c1C(=O)NCc1cc(Cl)c2cncn2c1N1CCCC1` [Example 171, 2-Amino-N-((8-chloro-5-(pyrrolidin-1-yl)imidazo[1,5-a]pyridin-6-yl)methyl)pyrazolo[1,5-a]pyrimidine-3-carboxamide trifluoroacetate salt], the results for the IC50 in experiment [3], in experiment [4] and in experiment [5] (setting [6]) were under 100 nM, under 500 nM and over 1000 nM, respectively.

Turning to `Nc1nn2cccnc2c1C(=O)NCc1cc(Cl)c2c(Cl)ncn2c1N1CCCC1` [Example 172, 2-Amino-N-((1,8-dichloro-5-(pyrrolidin-1-yl)imidazo[1,5-a]pyridin-6-yl)methyl)pyrazolo[1,5-a]pyrimidine-3-carboxamidetrifluoroacetate salt], the IC50 in experiment [3] was under 100 nM; in experiment [4], under 500 nM; in experiment [5] (setting [6]) it was under 1000 nM.

With `N#Cc1ncn2c(N3CCCC3)c(CNC(=O)c3c(N)nn4cccnc34)cc(Cl)c12` [Example 173, 2-Amino-N-((8-chloro-1-cyano-5-(pyrrolidin-1-yl)imidazo[1,5-a]pyridin-6-yl)methyl)pyrazolo[1,5-a]pyrimidine-3-carboxamide trifluoroacetate salt], the IC50 was under 500 nM in experiment [3], under 2000 nM in experiment [4] and over 1000 nM in experiment [5] (setting [6]).

On to `CC1CN(c2c(CNC(=O)c3c(N)nn4cccnc34)cc(Cl)c3c(C#N)ncn23)CCS1(=O)=O` (centres unmarked) [Example 174, 2-Amino-N-((8-chloro-1-cyano-5-(2-methyl-1,1-dioxidothiomorpholino)imidazo[1,5-a]pyridin-6-yl)methyl)pyrazolo[1,5-a]pyrimidine-3-carboxamide trifluoroacetate salt], for which the results for the IC50 in experiment [3], in experiment [4] and in experiment [5] (setting [6]) were under 100 nM, under 2000 nM and over 1000 nM, respectively.

For `CCC(NC(=O)c1c(N)nn2cccnc12)c1cc(Cl)c2c(C#N)ncn2c1N1CCS(=O)(=O)C(C)C1` (centres unmarked) [Example 175, 2-Amino-N-(1-(8-chloro-1-cyano-5-(2-methyl-1,1-dioxidothiomorpholino)imidazo[1,5-a]pyridin-6-yl)propyl)pyrazolo[1,5-a]pyrimidine-3-carboxamide trifluoroacetate salt], the IC50 in experiment [3] is under 100 nM; in experiment [4], under 2000 nM; in experiment [5] (setting [6]) it was under 500 nM.

As for `CC1CN(c2c(C(NC(=O)c3c(N)nn4cccnc34)C3CC3)cc(Cl)c3c(C#N)ncn23)CCS1(=O)=O` (centres unmarked) [Example 176, 2-Amino-N-((8-chloro-1-cyano-5-(2-methyl-1,1-dioxidothio-morpholino)imidazo [1,5-a]pyridin-6-yl)(cyclopropyl)methyl)pyrazolo [1,5-a]pyrimidine-3-carboxamide trifluoroacetate salt], the IC50 was under 100 nM in experiment [3], under 2000 nM in experiment [4] and under 500 nM in experiment [5] (setting [6]).

Consider `CC1CN(c2c(C(NC(=O)c3c(N)nn4cccnc34)C(F)(F)F)cc(Cl)c3c(C#N)ncn23)CCS1(=O)=O` (centres unmarked) [Example 177, 2-Amino-N-(1-(8-chloro-1-cyano-5-(2-methyl-1,1-dioxidothiomorpholino)imidazo[1,5-a]pyridin-6-yl)-2,2,2-trifluoroethyl)pyrazolo[1,5-a]pyrimidine-3-carboxamide trifluoroacetate salt], for which the results for the IC50 in experiment [3], in experiment [4] and in experiment [5] (setting [6]) were under 100 nM, at least 2000 nM and under 1000 nM, respectively.

As for `CCC(NC(=O)c1c(N)nn2cccnc12)c1cc(Cl)c2cncn2c1N1CCS(=O)(=O)CC1` (centres unmarked) [Example 179, 2-Amino-N-{1-[8-chloro-5-(1,1-dioxidothio-morpholin-4-yl)imidazo[1,5-a]pyridin-6-yl]propyl} pyrazolo[1,5-a] pyrimidine-3-carboxamide trifluoroacetate salt], the values for the IC50 in experiment [3], in experiment [4] and in experiment [5] (THP-1 cells) were under 100 nM, under 100 nM and under 500 nM, respectively.
